According to patent publication EP0329223A2, “Acetylenic and triyne cyclic carbonates” (Merck & Co., Inc., priority 1988, dated 1989):
Converted amounts (≈) assume the structure as drawn. Where two headings read alike, the source gives them in different places.

Assays:
[1] = test system: Candida albicans MY 1055; test: Antifungal assay, minimum inhibitory concentration; assay type: cell-based; conditions: lowest concentration that inhibits visible growth, Yeast Nitrogen Base/0.5% glucose, 37°C for 18 hours, starting inoculum 3-5 x 10⁻⁴ CFU/ml
Procedure: Antifungal activity was determined against Candida albicans MY 1055, a yeast strain maintained by Merck and Co; Rahway, New Jersey. Minimum inhibitory concentrations were determined using a starting inoculum of […]. The medium was Yeast Nitrogen Base/0.5% glucose. Test compounds were dissolved in a minimum amount of 50% aqueous ethanol and diluted to final concentrations with yeast medium. Samples were incubated at 37°C for 18 hours. The minimum inhibitory concentration (MIC), reported in µg/ml, is the lowest concentration of test compound that inhibits visible growth.

[2] = target: T1, Acetoacetyl-coenzyme A thiolase (Rattus norvegicus, UniProt Q5XI22); test: Acetoacetyl-coenzyme A thiolase inhibition, coupled spectrophotometric assay (NADH oxidation at 340 nm); assay type: biochemical, Sprague Dawley rats
T1 construct: prepared from the livers of Sprague Dawley rats treated in the diet for one week with 0.075% lovastatin to induce the enzyme; from tissue; host or cells: liver of lovastatin-treated Sprague Dawley rats
T1 sequence (Q5XI22 whole entry): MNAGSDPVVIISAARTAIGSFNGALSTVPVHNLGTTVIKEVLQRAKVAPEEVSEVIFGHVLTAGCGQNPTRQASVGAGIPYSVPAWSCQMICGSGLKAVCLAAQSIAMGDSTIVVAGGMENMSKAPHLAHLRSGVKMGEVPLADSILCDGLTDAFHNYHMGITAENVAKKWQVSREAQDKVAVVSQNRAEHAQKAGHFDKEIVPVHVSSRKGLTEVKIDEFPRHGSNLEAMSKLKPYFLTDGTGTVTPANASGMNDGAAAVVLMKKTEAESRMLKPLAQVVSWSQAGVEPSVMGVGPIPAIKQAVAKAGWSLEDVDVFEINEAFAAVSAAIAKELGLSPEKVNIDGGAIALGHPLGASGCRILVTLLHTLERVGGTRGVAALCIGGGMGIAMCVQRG
Procedure: Acetoacetyl-coenzyme A thiolase was prepared from the livers of Sprague Dawley rats treated in the diet for one week with 0.075% lovastatin to induce the enzyme. […] The 0.06 M eluate described by Mehrabian et al. contained the acetoacetyl-coenzyme A thiolase. The isolate was concentrated by ammonium sulfate precipitation, dissolved in the buffer used for elution, and stored at -70°C.
Reaction was measured at room temperature for a time period necessary to produce a measurable reaction rate. An IC₅₀, the concentration that inhibits 50% of the acetoacetyl-coenzyme A thiolase activity, was determined for each test compound. […]

[3] = enzyme from rat liver (lovastatin-induced), pH 7.5, room temperature, 2.85 mM acetoacetyl-coenzyme A, read-out: IC₅₀

IC50 [2, 3] [nM]	Compound	MIC [1] [µg/mL]	MIC ([1]; read-out: MIC) [µg/mL]	IC50 [2] [nM]
	COC(=O)CCCCCC[C@@H]1OC(=O)O[C@H]1C(O)C#CC#CC#C[Si](C)(C)C (single isomer, unassigned) [Ex. 5]		0.078 (≈ 0.193 µM)	62
	COC(=O)CCCCCC[C@@H]1OC(=O)O[C@H]1C(O)C#CC#CC#C[Si](C)(C)C (single isomer, unassigned) [Ex. 6]		0.6 (≈ 1.48 µM)	990
24	C#CC#CC#C[C@@H](O)[C@@H]1OC(=O)O[C@H]1CCCCCCC(=O)OC [Ex. 17, 5-(1(R)-Hydroxy-2,4,6-heptatriynyl)-2-oxo-4(S),5(S)-1,3-dioxolane-4-heptanoic acid, methyl ester]			
150	C#CC#CC#C[C@@H](OC(C)=O)[C@@H]1OC(=O)O[C@H]1CCCCCCC(=O)OC [Ex. 18, 5-(1(R)-(Acetyloxy)-2,4,6-heptatriynyl)-2-oxo-4(S),5(S)-1,3-dioxolane-4-heptanoic acid, methyl ester]			
9	C#CC#CC#C[C@@H](OC(C)=O)[C@@H]1OC(=O)O[C@H]1CCCCCCC(=O)O [Ex. 19, 5-(1(R)-(Acetyloxy)-2,4,6-heptatriynyl)-2-oxo-4(S),5(S)-1,3-dioxolane-4-heptanoic acid]			

Compound	IC50 [2, 3] [nM]	MIC [1] [µg/mL]	MIC ([1]; read-out: MIC) [µg/mL]	IC50 [2] [nM]
5-(1(R)-Methoxy-2,4,6-octatriynyl)-2-oxo-4(S),5(S)-1,3 dioxolane-4-heptanoic acid, methyl ester [Ex. 13]	560	5		
C#CC#CC#C[C@@H](OC)[C@@H]1OC(=O)O[C@H]1CCCCCCC(=O)OC [Ex. 20, 5-(1(R)-Methoxy-2,4,6-heptatriynyl)-2-oxo-4(S),5(S)-1,3-dioxolane-4 heptanoic acid, methyl ester]	46			
